Key:
SJSA1 tumors = assay: Intratumoral dosing regimens of navtemadlin in SJSA1 tumors: tumor volume / % tumor inhibition; format: in vivo, human; conditions: for % TGI Day 24: compared to the vehicle
Method: A study was conducted to compare differences between dosing regimens of navtemadlin administered to SJSA1 tumors. S.ISa-1 is a human […] cell line. Navtemadlin is an MDM2 inhibitor compound of the disclosure. […]
(§1) FIG. 2 panels A and B show the effects of intratumoral dosing regimens of navtemadlin in SJSA1 tumors, such as on tumor volume (mm 3) and % body weight change.

[1] = % body weight change in the SJSA1 tumor dosing regimen study; format: in vivo; conditions: SJSA1 tumors
Method: A study was conducted to compare differences between dosing regimens of navtemadlin administered to SJSA1 tumors. S.ISa-1 is a human […] cell line. Navtemadlin is an MDM2 inhibitor compound of the disclosure. Navtemadlin was administered intratumorally as 20 μL of 100 mg/mL navtemadlin Q3D×9, 20 μL of 100 mg/mL navtemadlin Q7D×5, 20 μL of 100 mg/mL navtemadlin Q14D×3, and 20 μL of 25 mg/mL navtemadlin QD×31.
as §1

[2] = intratumorally 20 μL of 25 mg/mL QD×31
[3] = intratumorally 20 μL of 100 mg/mL Q3D×9
[4] = intratumorally 20 μL of 100 mg/mL Q7D×5
[5] = intratumorally 20 μL of 100 mg/mL Q14D×3

## CC(C)[C@@H](CS(=O)(=O)C(C)C)N1C(=O)[C@@](C)(CC(=O)O)C[C@H](c2cccc(Cl)c2)[C@H]1c1ccc(Cl)cc1 [navtemadlin]
SJSA1 tumors; Q3Dx21 IT
  % TGI Day 24: 94%
SJSA1 tumors; Q7Dx21 IT
  % TGI Day 24: 94%
SJSA1 tumors; Q14Dx21 IT
  % TGI Day 24: 94%
SJSA1 tumors; QDx21 PO
  % TGI Day 24: 94%
SJSA1 tumors; [2]
  tumor volume: significant tumor volume reduction
SJSA1 tumors; [3]
  tumor volume: significant tumor volume reduction
SJSA1 tumors; [4]
  tumor volume: significant tumor volume reduction
SJSA1 tumors; [5]
  tumor volume: significant tumor volume reduction
[1]; [2]
  % body weight change: not significantly affecting % body weight change
[1]; [3]
  % body weight change: not significantly affecting % body weight change
[1]; [4]
  % body weight change: not significantly affecting % body weight change
[1]; [5]
  % body weight change: not significantly affecting % body weight change
